Laboratory results reported in patent US9365572B2, “PI3K and/or mTOR inhibitor” (XUANZHU PHARMA CO., LTD., priority 2012, dated 2016).

Experiments:
Adenosine A2A = Adenosine A2A (Homo sapiens (Human), UniProt P29274); test: Radioligand binding assay No. 200610; details: test substance 10 μM, read-out: Inhibitory rate (%), Adenosine A2A
GABAA, Muscimol, Central = test: Radioligand binding assay No. 226500; details: test substance 10 μM; rat
GABAB1A = GABAB1A (Homo sapiens (Human), UniProt Q9UBS5); test: Radioligand binding assay No. 228610; details: test substance 10 μM, read-out: Inhibitory rate (%), GABAB1A
Glutamate, NMDA, Glycine = Glutamate, NMDA, Glycine (Rattus norvegicus (Rat), UniProt P35439); test: Radioligand binding assay No. 232910; details: test substance 10 μM, read-out: Inhibitory rate (%), Glutamate, NMDA, Glycine
Opiate μ(OP3, MOP) = Opiate μ(OP3, MOP) (Homo sapiens (Human), UniProt P35372); test: Radioligand binding assay No. 260410; details: test substance 10 μM, read-out: Inhibitory rate (%), Opiate μ(OP3, MOP)
PI3Kα = PI3Kα (Homo sapiens (Human), UniProt P42336); test: PI3Kα enzymatic assay; type: biochemical; details: read-out: In vitro enzymatic activity (IC50) PI3Kα
Protocol: Assay 1-2: In Vitro Enzymatic Inhibitory Activity of the Present Compound
• 1.1 1-fold kinase buffer: 50 mM HEPES, pH 7.5, 10 mM MgCl2, 1 mM EGTA, 3 mM MnCl2, 0.01% Tween-20, 2 mM DTT; • 1.2 4-fold kinase solution: mTOR kinase was added to 1-fold kinase buffer to form 4-fold kinase solution with a final concentration of 2.5 nM; • 1.3 2-fold substrate and ATP solution: the substrate 4EBP1 and ATP were added to 1-fold kinase buffer to form 2-fold substrate solution with final concentration of 50 nM of 4EBP1 and 10.8 μM of ATP; • 1.4 4-fold test substance solutions: 100-fold test substance solutions in different gradient concentrations were formulated with 100% DMSO, and diluted by 25 folds with 1-fold kinase buffer to form 4-fold test substance solutions in different gradient concentrations. • 1.5 Preparation of detection solution: a detection solution containing 2-fold final concentrations of EDTA and 4EBP1 phosphorylated antibody was formulated, wherein the final concentration for EDTA was 8 mM, and the final concentration for the 4EBP phosphorylated antibody was 2 nM. 2. Procedure • 2.1 To each well of a 384-well plate was added 2.5 μL of the 4-fold test substance solutions in gradient concentrations. The replication was made. • 2.2 To each well was added 2.5 μL of 4-fold kinase solution, and then the plate was incubated for 10 mins; • 2.3 Then to each well was added 5 μL/of 2-fold substrate and ATP solution, and then the plate was incubated at room temperature for 1 hour; • 2.4 Finally, 10 μL of the detection solution was added to terminate the reaction. After 60 mins, the data Lance signal ([…]) was read from Envision. 3 Data treatment Inhibition rate (%)=[…] • wherein: • maximum refers to the reading at the DMSO control well. • minimum refers to the reading at the control well without kinase, • The data was input into Graphpad Prism 5.0 to plot and obtain the curve and IC50 value. PI3Kα Enzymatic Assay 1. […] After 15 mins, the data Lance signal ([…]) was read from Envision. 3 Data treatment Inhibition rate (%)=100−(sample value−minimum)/(maximum−minimum)×100 • wherein: • maximum refers to the reading at the control well without kinase, • minimum refers to the reading at the DMSO control well, • The data was input into Graphpad Prism 5.0 to plot and obtain the curve and IC50 value. […]

Sequence of Adenosine A2A (P29274 whole entry): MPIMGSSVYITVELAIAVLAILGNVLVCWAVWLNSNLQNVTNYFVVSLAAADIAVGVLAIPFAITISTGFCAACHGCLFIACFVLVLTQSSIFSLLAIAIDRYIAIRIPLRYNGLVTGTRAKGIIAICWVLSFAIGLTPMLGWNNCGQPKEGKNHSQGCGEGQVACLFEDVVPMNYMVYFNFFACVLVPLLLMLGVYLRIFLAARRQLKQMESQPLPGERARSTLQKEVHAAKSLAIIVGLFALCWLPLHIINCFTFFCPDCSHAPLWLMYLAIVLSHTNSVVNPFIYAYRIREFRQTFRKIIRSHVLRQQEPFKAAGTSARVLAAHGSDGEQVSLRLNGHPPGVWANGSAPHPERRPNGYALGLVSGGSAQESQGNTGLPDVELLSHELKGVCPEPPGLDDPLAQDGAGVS
Sequence of Opiate μ(OP3, MOP) (P35372 whole entry): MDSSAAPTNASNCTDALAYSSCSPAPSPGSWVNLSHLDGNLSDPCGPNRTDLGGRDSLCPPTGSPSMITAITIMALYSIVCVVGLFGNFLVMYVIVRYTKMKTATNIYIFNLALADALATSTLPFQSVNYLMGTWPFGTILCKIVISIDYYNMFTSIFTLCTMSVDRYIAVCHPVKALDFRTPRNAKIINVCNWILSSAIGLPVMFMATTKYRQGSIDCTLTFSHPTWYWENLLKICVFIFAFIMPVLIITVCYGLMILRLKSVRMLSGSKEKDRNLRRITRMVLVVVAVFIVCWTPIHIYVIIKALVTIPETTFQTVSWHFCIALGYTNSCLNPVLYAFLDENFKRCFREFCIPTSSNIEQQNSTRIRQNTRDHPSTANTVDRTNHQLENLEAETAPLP
Sequence of GABAB1A (Q9UBS5 15-961): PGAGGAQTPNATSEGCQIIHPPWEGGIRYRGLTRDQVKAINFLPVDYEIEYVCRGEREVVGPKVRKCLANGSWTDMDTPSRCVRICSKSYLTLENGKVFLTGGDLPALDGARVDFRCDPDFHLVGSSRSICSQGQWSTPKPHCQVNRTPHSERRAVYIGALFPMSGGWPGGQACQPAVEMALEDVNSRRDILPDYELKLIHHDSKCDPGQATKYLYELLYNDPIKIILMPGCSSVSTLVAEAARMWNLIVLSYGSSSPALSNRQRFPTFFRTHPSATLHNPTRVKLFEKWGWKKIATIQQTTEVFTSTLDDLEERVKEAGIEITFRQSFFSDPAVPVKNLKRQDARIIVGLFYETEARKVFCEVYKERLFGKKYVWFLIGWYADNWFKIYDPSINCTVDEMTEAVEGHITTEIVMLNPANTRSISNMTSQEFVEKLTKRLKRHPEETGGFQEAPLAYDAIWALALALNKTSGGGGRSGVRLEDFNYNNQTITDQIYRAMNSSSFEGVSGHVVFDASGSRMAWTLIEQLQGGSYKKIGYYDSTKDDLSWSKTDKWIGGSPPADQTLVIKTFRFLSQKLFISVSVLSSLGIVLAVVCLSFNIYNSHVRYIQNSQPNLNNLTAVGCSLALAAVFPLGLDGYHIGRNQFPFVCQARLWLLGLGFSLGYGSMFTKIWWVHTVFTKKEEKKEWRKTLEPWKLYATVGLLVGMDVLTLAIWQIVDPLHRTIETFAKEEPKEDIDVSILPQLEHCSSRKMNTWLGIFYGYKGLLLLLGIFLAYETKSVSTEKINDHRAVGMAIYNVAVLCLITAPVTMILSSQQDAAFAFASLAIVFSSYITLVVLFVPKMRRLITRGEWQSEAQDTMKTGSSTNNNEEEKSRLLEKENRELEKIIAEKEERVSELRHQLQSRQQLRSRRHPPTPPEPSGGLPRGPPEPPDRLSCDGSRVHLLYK
Sequence of PI3Kα (P42336 whole entry): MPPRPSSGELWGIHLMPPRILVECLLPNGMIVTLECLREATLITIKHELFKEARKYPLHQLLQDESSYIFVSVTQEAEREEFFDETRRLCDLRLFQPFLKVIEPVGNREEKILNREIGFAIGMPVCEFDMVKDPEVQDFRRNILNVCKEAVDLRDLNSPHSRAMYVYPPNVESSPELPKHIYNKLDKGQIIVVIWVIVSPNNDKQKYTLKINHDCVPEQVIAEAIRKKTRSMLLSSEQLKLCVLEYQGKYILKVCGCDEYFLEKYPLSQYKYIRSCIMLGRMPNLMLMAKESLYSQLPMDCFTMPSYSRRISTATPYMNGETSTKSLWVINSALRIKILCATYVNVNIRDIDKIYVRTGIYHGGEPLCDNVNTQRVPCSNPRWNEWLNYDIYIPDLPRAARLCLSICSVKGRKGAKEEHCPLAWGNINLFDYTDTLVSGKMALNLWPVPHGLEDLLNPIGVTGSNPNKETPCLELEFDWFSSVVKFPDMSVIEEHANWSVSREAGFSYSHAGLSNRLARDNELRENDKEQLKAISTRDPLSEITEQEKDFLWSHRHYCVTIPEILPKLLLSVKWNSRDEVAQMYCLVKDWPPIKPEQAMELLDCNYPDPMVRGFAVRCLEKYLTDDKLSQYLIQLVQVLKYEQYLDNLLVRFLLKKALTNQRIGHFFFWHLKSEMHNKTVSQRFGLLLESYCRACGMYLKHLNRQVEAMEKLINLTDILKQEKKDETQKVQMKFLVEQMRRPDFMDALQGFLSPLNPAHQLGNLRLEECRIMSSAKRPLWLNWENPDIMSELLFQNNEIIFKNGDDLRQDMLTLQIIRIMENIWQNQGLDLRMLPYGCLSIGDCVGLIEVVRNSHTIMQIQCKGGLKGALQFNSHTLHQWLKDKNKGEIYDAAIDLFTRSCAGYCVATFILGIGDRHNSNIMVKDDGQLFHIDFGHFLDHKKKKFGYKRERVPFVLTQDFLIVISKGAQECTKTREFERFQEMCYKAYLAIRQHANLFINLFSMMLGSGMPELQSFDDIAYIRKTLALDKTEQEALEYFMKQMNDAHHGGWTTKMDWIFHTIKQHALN
Sequence of PI3Kα (P27986 whole entry partner): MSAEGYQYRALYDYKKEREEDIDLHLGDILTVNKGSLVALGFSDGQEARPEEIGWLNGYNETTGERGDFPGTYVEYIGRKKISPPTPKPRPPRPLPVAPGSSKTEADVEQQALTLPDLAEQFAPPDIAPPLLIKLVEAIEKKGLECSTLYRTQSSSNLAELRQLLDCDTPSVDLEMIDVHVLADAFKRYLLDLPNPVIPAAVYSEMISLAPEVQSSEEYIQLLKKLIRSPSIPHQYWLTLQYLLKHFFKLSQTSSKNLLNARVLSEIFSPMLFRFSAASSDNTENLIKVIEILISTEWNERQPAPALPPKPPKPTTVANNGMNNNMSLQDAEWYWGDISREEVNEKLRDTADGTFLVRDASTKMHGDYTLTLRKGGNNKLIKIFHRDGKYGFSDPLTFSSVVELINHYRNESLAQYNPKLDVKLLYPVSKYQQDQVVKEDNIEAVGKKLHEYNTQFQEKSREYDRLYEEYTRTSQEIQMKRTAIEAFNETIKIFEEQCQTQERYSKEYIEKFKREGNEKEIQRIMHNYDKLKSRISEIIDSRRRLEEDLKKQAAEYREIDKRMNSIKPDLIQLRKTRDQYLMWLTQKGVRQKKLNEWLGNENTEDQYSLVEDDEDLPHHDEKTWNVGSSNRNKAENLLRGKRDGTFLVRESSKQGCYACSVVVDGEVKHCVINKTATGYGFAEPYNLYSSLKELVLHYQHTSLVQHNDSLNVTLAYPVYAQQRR

Nc1ccc(-c2ccc3ncc4c(=O)[nH]c(=O)n(-c5cccc(C(F)(F)F)c5)c4c3n2)cn1 [Compound 5, 9-(6-aminopyridin-3-yl)-1-(3-(trifluoromethyl)phenyl)pyrimido[5,4-c][1,5]naphthyridine-2,4(1H,3H)-dione] was tested, and the inhibition at 10 µM (Adenosine A2A) was 0%, the “Inhibitory rate (%), GABAA, Muscimol, Central” value (GABAA, Muscimol, Central) was 18% and the inhibition at 10 µM (GABAB1A) was 15%. The inhibition at 10 µM (Glutamate, NMDA, Glycine) was 29% and the inhibition at 10 µM (Opiate μ(OP3, MOP)) was 2%.

In the case of O=c1[nH]c(=O)n(-c2cccc(C(F)(F)F)c2)c2c1cnc1ccc(-c3cnc4[nH]ccc4c3)nc12 [Compound 30, 9-(1H-pyrrolo[2,3-b]pyridin-5-yl)-1-(3-(trifluoromethyl)phenyl)pyrimido[5,4-c][1,5]naphthyridine-2,4(1H,3H)-dione], the IC50 (PI3Kα) is reported as 15 nM.
